From patent US9708314B2, “Heterocyclic amide compound” (NISSAN CHEMICAL INDUSTRIES, LTD., priority 2013, dated 2017)

Key:
Assay type in all cases: in vivo
Conditions in all cases: application to foliage, 320 g/ha
[1] = system: Abutilon theophrasti; assay: Test Example 4: herbicidal effect by application to foliage (diluvial soil, plastic box)
From the text: (§1) 5 Herbicidal ratio of 90% or more (almost completely withered) 4 Herbicidal ratio of 70% or more and less than 90% 3 Herbicidal ratio of 40% or more and less than 70% 2 Herbicidal ratio of 20% or more and less than 40% 1 Herbicidal ratio of 5% or more and less than 20% 0 Herbicidal ratio of 5% or less (almost no effect) [Test Example 4] Herbicidal Effect Test by Application to Foliage Sterilized diluvial soil was placed in a plastic box having a length of 21 cm, a width of 13 cm, and a depth of 7 cm. Each of the seeds of Digitaria ciliaris, Setaria viridis, Echinochloa crus-galli var. crus-galli, Avena fatua, Alopecurus myosuroides, Lolium multiflorum Lam., Apera spica-venti., Abutilon theophrasti, Amaranthus retroflexus, Chenopodium album, Stellaria media, Galium spurium, Veronica persica, Zea mays, Glycine max, Oryza sativa, Triticum aestivum, Beta vulgaris ssp. vulgaris, and Brassica campestris L. was sowed in a spot-like manner and was covered with the soil of about 1.5 cm thick. Thereafter, the plants were grown in the greenhouse of 25° C. to 30° C. After the plants were grown for 14 days, the emulsion agent containing the compound of the present invention prepared in accordance with Formulation Example 2 was diluted with water so as to be a predetermined herbicide amount and the diluted compound was uniformly applied to a stem and leaf part with a small-size spray. Three weeks after the herbicide application, effects on each plant were investigated in accordance with the criteria of Test Example 1. A: Echinochloa oryzicola Vasing., B: Scirpus juncoides, C: Monochoria vaginalis, D: Leptochloa chinensis, E: Cyperus difformis, F: Digitaria ciliaris, G: Setaria viridis, H: Echinochloa crus-galli var. crus-galli, I: Avena fatua, J: Alopecurus myosuroides, K: Lolium multiflorum Lam., L: Apera spica-venti., M: Abutilon theophrasti, N: Amaranthus retroflexus, O: Chenopodium album, P: Stellaria media, Q: Galium spurium, R: Veronica persica, a: transplanted Oryza sativa, b: directly sowed Oryza sativa, c: Zea mays, d: Glycine max, e: Triticum aestivum, f: Beta vulgaris ssp. vulgaris, and g: Brassica campestris L. The application herbicide amount (g/ha) means an amount that a concentration is adjusted so that, when an application amount is converted into per hectare (1 ha), the herbicide is applied by the number of grams (g) of the described value.

[2] = system: Alopecurus myosuroides; assay: as above
From the text: as §1

[3] = system: Amaranthus retroflexus; assay: as above
From the text: as §1

[4] = system: Apera spica-venti.; assay: as above
From the text: as §1

[5] = system: Avena fatua; assay: as above
From the text: as §1

[6] = system: Chenopodium album; assay: as above
From the text: as §1

[7] = system: Digitaria ciliaris; assay: as above
From the text: as §1

[8] = system: Echinochloa crus-galli var. crus-galli; assay: as above
From the text: as §1

[9] = system: Galium spurium; assay: as above
From the text: as §1

[10] = system: Lolium multiflorum Lam.; assay: as above
From the text: as §1

[11] = system: Setaria viridis; assay: as above
From the text: as §1

[12] = system: Stellaria media; assay: as above
From the text: as §1

[13] = system: Veronica persica; assay: as above
From the text: as §1

[14] = system: Beta vulgaris ssp. vulgaris; assay: Test Example 4: effect on crop by application to foliage (diluvial soil, plastic box)
From the text: as §1

[15] = system: Brassica campestris L.; assay: as above
From the text: as §1

[16] = system: Glycine max; assay: as above
From the text: as §1

[17] = system: Triticum aestivum; assay: as above
From the text: as §1

[18] = system: Zea mays; assay: as above
From the text: as §1

[19] = system: directly sowed Oryza sativa; assay: as above
From the text: as §1

SMILES | herbicidal effect, M (Abutilon theophrasti) [1] | herbicidal effect, J (Alopecurus myosuroides) [2] | herbicidal effect, N (Amaranthus retroflexus) [3] | herbicidal effect, L (Apera spica-venti.) [4] | herbicidal effect, I (Avena fatua) [5] | herbicidal effect, O (Chenopodium album) [6] | herbicidal effect, F (Digitaria ciliaris) [7] | herbicidal effect, H (Echinochloa crus-galli var. crus-galli) [8] | herbicidal effect, Q (Galium spurium) [9] | herbicidal effect, K (Lolium multiflorum Lam.) [10] | herbicidal effect, G (Setaria viridis) [11] | herbicidal effect, P (Stellaria media) [12] | herbicidal effect, R (Veronica persica) [13] | effect on crop, f (Beta vulgaris ssp. vulgaris) [14] | effect on crop, g (Brassica campestris L.) [15] | effect on crop, c (Glycine max) [16] | effect on crop, e (Triticum aestivum) [17] | effect on crop, b (Zea mays) [18] | effect on crop, d (directly sowed Oryza sativa) [19]
CC(C)c1nnc2c(C(=O)Nc3ncnn3C)ccc(C(F)(F)F)n12 [4-001] | 5 (Herbicidal ratio of 90% or more (almost completely withered)) | 0 (Herbicidal ratio of 5% or less (almost no effect)) | 5 (Herbicidal ratio of 90% or more (almost completely withered)) | 0 (Herbicidal ratio of 5% or less (almost no effect)) | 1 (Herbicidal ratio of 5% or more and less than 20%) | 5 (Herbicidal ratio of 90% or more (almost completely withered)) | 1 (Herbicidal ratio of 5% or more and less than 20%) | 3 (Herbicidal ratio of 40% or more and less than 70%) | 3 (Herbicidal ratio of 40% or more and less than 70%) | 0 (Herbicidal ratio of 5% or less (almost no effect)) | 2 (Herbicidal ratio of 20% or more and less than 40%) | 3 (Herbicidal ratio of 40% or more and less than 70%) | 3 (Herbicidal ratio of 40% or more and less than 70%) | 2 (Herbicidal ratio of 20% or more and less than 40%) | 0 (Herbicidal ratio of 5% or less (almost no effect)) | 0 (Herbicidal ratio of 5% or less (almost no effect)) | 0 (Herbicidal ratio of 5% or less (almost no effect)) | 0 (Herbicidal ratio of 5% or less (almost no effect)) | 2 (Herbicidal ratio of 20% or more and less than 40%)
CC(C)c1nnc2c(C(=O)Nc3ncn[nH]3)ccc(C(F)(F)F)n12 [4-004] | 0 (Herbicidal ratio of 5% or less (almost no effect)) | 0 (Herbicidal ratio of 5% or less (almost no effect)) | 0 (Herbicidal ratio of 5% or less (almost no effect)) | 0 (Herbicidal ratio of 5% or less (almost no effect)) | 0 (Herbicidal ratio of 5% or less (almost no effect)) | 4 (Herbicidal ratio of 70% or more and less than 90%) | 0 (Herbicidal ratio of 5% or less (almost no effect)) | 0 (Herbicidal ratio of 5% or less (almost no effect)) | 0 (Herbicidal ratio of 5% or less (almost no effect)) | 0 (Herbicidal ratio of 5% or less (almost no effect)) | 0 (Herbicidal ratio of 5% or less (almost no effect)) | 0 (Herbicidal ratio of 5% or less (almost no effect)) | 0 (Herbicidal ratio of 5% or less (almost no effect)) | 0 (Herbicidal ratio of 5% or less (almost no effect)) | 0 (Herbicidal ratio of 5% or less (almost no effect)) | 0 (Herbicidal ratio of 5% or less (almost no effect)) | 0 (Herbicidal ratio of 5% or less (almost no effect)) | 0 (Herbicidal ratio of 5% or less (almost no effect)) | 0 (Herbicidal ratio of 5% or less (almost no effect))
Cc1nnc(NC(=O)c2ccc(C(F)(F)F)n3c(=O)n(C)nc23)o1 [6-001] | 3 (Herbicidal ratio of 40% or more and less than 70%) | 0 (Herbicidal ratio of 5% or less (almost no effect)) | 3 (Herbicidal ratio of 40% or more and less than 70%) | 0 (Herbicidal ratio of 5% or less (almost no effect)) | 0 (Herbicidal ratio of 5% or less (almost no effect)) | 4 (Herbicidal ratio of 70% or more and less than 90%) | 1 (Herbicidal ratio of 5% or more and less than 20%) | 1 (Herbicidal ratio of 5% or more and less than 20%) | 2 (Herbicidal ratio of 20% or more and less than 40%) | 0 (Herbicidal ratio of 5% or less (almost no effect)) | 2 (Herbicidal ratio of 20% or more and less than 40%) | 4 (Herbicidal ratio of 70% or more and less than 90%) | 2 (Herbicidal ratio of 20% or more and less than 40%) | 3 (Herbicidal ratio of 40% or more and less than 70%) | 0 (Herbicidal ratio of 5% or less (almost no effect)) | 0 (Herbicidal ratio of 5% or less (almost no effect)) | 0 (Herbicidal ratio of 5% or less (almost no effect)) | 0 (Herbicidal ratio of 5% or less (almost no effect)) | 0 (Herbicidal ratio of 5% or less (almost no effect))
Cc1nnc(NC(=O)c2ccc(C(F)(F)F)n3c(=O)n(C(C)C)nc23)o1 [6-005] | 4 (Herbicidal ratio of 70% or more and less than 90%) | 1 (Herbicidal ratio of 5% or more and less than 20%) | 3 (Herbicidal ratio of 40% or more and less than 70%) | 1 (Herbicidal ratio of 5% or more and less than 20%) | 0 (Herbicidal ratio of 5% or less (almost no effect)) | 3 (Herbicidal ratio of 40% or more and less than 70%) | 3 (Herbicidal ratio of 40% or more and less than 70%) | 3 (Herbicidal ratio of 40% or more and less than 70%) | 1 (Herbicidal ratio of 5% or more and less than 20%) | 1 (Herbicidal ratio of 5% or more and less than 20%) | 1 (Herbicidal ratio of 5% or more and less than 20%) | 1 (Herbicidal ratio of 5% or more and less than 20%) | 1 (Herbicidal ratio of 5% or more and less than 20%) | 1 (Herbicidal ratio of 5% or more and less than 20%) | 0 (Herbicidal ratio of 5% or less (almost no effect)) | 0 (Herbicidal ratio of 5% or less (almost no effect)) | 0 (Herbicidal ratio of 5% or less (almost no effect)) | 0 (Herbicidal ratio of 5% or less (almost no effect)) | 0 (Herbicidal ratio of 5% or less (almost no effect))
